Assay results published in PubChem BioAssay AID1963977 (Molecular Pharmacology Branch, DTP, NCI, 2024).
“And” between values parts separate entries of the source, which are not always exact repeats. Identical values can stand only once.

Tested on: 624824-186-R-J3-PDC multicell spheroids, viability
Assay: Anticancer human tumor 624824-186-R-J3-PDC patient-derived colon adenocarcinoma cell line growth inhibition [PI3K]
Conditions: for viability, T/C: stronger effect = lower value
Method in brief: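 Tumor cells were combined with HUVEC and MSCs into spheroids, then dosed with PI3K-inhibitor combinations over half-log ranges capped near clinical Cmax or 10 microM.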

[1] = curve of first compound, second compound 0.00316 µM
[2] = curve of first compound, second compound 0.01 µM
[3] = curve of first compound, second compound 0.0316 µM
[4] = curve of first compound, second compound 0.1 µM
[5] = curve of first compound, second compound 0.316 µM
[6] = curve of first compound, second compound 1 µM
[7] = second compound 0.00316 µM, first compound 0.0316 µM
[8] = second compound 0.00316 µM, first compound 0.1 µM
[9] = second compound 0.00316 µM, first compound 0.316 µM
[10] = second compound 0.00316 µM, first compound 1 µM
[11] = second compound 0.00316 µM, first compound 3.16 µM
[12] = second compound 0.00316 µM, first compound 10 µM
[13] = second compound 0.01 µM, first compound 0.0316 µM
[14] = second compound 0.01 µM, first compound 0.1 µM
[15] = second compound 0.01 µM, first compound 0.316 µM
[16] = second compound 0.01 µM, first compound 1 µM
[17] = second compound 0.01 µM, first compound 3.16 µM
[18] = second compound 0.01 µM, first compound 10 µM
[19] = second compound 0.0316 µM, first compound 0.0316 µM
[20] = second compound 0.0316 µM, first compound 0.1 µM
[21] = second compound 0.0316 µM, first compound 0.316 µM
[22] = second compound 0.0316 µM, first compound 1 µM
[23] = second compound 0.0316 µM, first compound 3.16 µM
[24] = second compound 0.0316 µM, first compound 10 µM
[25] = second compound 0.1 µM, first compound 0.0316 µM
[26] = second compound 0.1 µM, first compound 0.1 µM
[27] = second compound 0.1 µM, first compound 0.316 µM
[28] = second compound 0.1 µM, first compound 1 µM
[29] = second compound 0.1 µM, first compound 3.16 µM
[30] = second compound 0.1 µM, first compound 10 µM
[31] = second compound 0.316 µM, first compound 0.0316 µM
[32] = second compound 0.316 µM, first compound 0.1 µM
[33] = second compound 0.316 µM, first compound 0.316 µM
[34] = second compound 0.316 µM, first compound 1 µM
[35] = second compound 0.316 µM, first compound 3.16 µM
[36] = second compound 0.316 µM, first compound 10 µM
[37] = second compound 1 µM, first compound 0.0316 µM
[38] = second compound 1 µM, first compound 0.1 µM
[39] = second compound 1 µM, first compound 0.316 µM
[40] = second compound 1 µM, first compound 1 µM
[41] = second compound 1 µM, first compound 3.16 µM
[42] = second compound 1 µM, first compound 10 µM
[43] = curve of first compound, second compound 3.16 µM
[44] = curve of first compound, second compound 10 µM
[45] = second compound 3.16 µM, first compound 0.0316 µM
[46] = second compound 3.16 µM, first compound 0.1 µM
[47] = second compound 3.16 µM, first compound 0.316 µM
[48] = second compound 3.16 µM, first compound 1 µM
[49] = second compound 3.16 µM, first compound 3.16 µM
[50] = second compound 3.16 µM, first compound 10 µM
[51] = second compound 10 µM, first compound 0.0316 µM
[52] = second compound 10 µM, first compound 0.1 µM
[53] = second compound 10 µM, first compound 0.316 µM
[54] = second compound 10 µM, first compound 1 µM
[55] = second compound 10 µM, first compound 3.16 µM
[56] = second compound 10 µM, first compound 10 µM
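Note: spheroids exposed to agents for seven days before luminescence read.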
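Throughout, for viability, T/C: luminescent signal used as a stand-in for spheroid viability; percent viability relative to DMSO vehicle control wells taken as 100%.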

`C=CC(=O)N1CCN(c2nc(=O)n(-c3c(C)ccnc3C(C)C)c3nc(-c4c(O)cccc4F)c(F)cc23)C(C)C1` (configuration not stated) + COc1c(OCCCN2CCOCC2)ccc2c3n(c(=NC(=O)c4cnc(N)nc4)nc12)CCN3 gave an IC50 [1] greater than 10 µM, an IC50 [2] greater than 10 µM and an IC50 [3] greater than 10 µM. The IC50 [4] was greater than 10 µM, the IC50 [5] was 3.43 µM and the IC50 [6] was less than 0.0316 µM. For the same compound, the viability, T/C [7] was 119%, the viability, T/C [8] was 100% and the viability, T/C [9] was 112%. For the same compound, the viability, T/C [10] was 97%, the viability, T/C [11] was 100% and the viability, T/C [12] was 99.1%. For the same compound, the viability, T/C [13] was 93.1%, the viability, T/C [14] was 96.6% and the viability, T/C [15] was 104%. The viability, T/C [16] was 108%, the viability, T/C [17] was 97.7% and the viability, T/C [18] was 98.8%. The viability, T/C [19] was 99.8%, the viability, T/C [20] was 101% and the viability, T/C [21] was 92.9%. The viability, T/C [22] was 99%, the viability, T/C [23] was 89.7% and the viability, T/C [24] was 92.7%. It also gave a viability, T/C [25] of 78.1%, a viability, T/C [26] of 79.3% and a viability, T/C [27] of 78.7%. It also gave a viability, T/C [28] of 80.6%, a viability, T/C [29] of 80.2% and a viability, T/C [30] of 72.7%. The viability, T/C [31] was 48.7%, the viability, T/C [32] was 53.1% and the viability, T/C [33] was 53.2%. For the same compound, the viability, T/C [34] was 46.7%, the viability, T/C [35] was 51.8% and the viability, T/C [36] was 41.2%. For the same compound, the viability, T/C [37] was 28.9%, the viability, T/C [38] was 30.5% and the viability, T/C [39] was 29%. For the same compound, the viability, T/C [40] was 25.6%, the viability, T/C [41] was 26.3% and the viability, T/C [42] was 33.9%.
For `Cc1nc(NC(=O)N2CCCC2C(N)=O)sc1-c1ccnc(C(C)(C)C(F)(F)F)c1` (configuration not stated), the viability, T/C (compound 0.0316 µM) was 102% [middle of 8 runs], the viability, T/C (compound 0.1 µM) was 108% [middle of 8 runs] and the viability, T/C (compound 0.316 µM) was 109% [middle of 8 runs]. For the same compound, the viability, T/C (compound 1 µM) was 107% [middle of 8 runs], the viability, T/C (compound 3.16 µM) was 94% [middle of 8 runs] and the viability, T/C (compound 10 µM) was 72.8% [middle of 8 runs]. For the same compound, the IC50 (compound alone, run of 04/24/2023) was greater than 10 µM.
`CC(C)NCC(C(=O)N1CCN(c2ncnc3c2C(C)CC3O)CC1)c1ccc(Cl)cc1` (configuration not stated) + CC(Nc1ccc2c(c1)OCCn1cc(N3C(=O)OCC3C(F)F)nc1-2)C(N)=O gave an IC50 [1] of 6.8 µM, an IC50 [2] of 7.52 µM and an IC50 [3] of 5.35 µM. The IC50 [4] was 7.68 µM, the IC50 [5] was 4.24 µM and the IC50 [6] was 3.44 µM. It also gave a viability, T/C [7] of 107%, a viability, T/C [8] of 96.8% and a viability, T/C [9] of 97.7%. The viability, T/C [10] was 73.1%, the viability, T/C [11] was 59.9% and the viability, T/C [12] was 45.4%. For the same compound, the viability, T/C [13] was 98.3%, the viability, T/C [14] was 96.8% and the viability, T/C [15] was 99.4%. The viability, T/C [16] was 72%, the viability, T/C [17] was 63.8% and the viability, T/C [18] was 45.3%. It also gave a viability, T/C [19] of 96.2%, a viability, T/C [20] of 93.4% and a viability, T/C [21] of 91.6%. For the same compound, the viability, T/C [22] was 77.4%, the viability, T/C [23] was 57.2% and the viability, T/C [24] was 41.7%. The viability, T/C [25] was 108%, the viability, T/C [26] was 94.1% and the viability, T/C [27] was 88.1%. It also gave a viability, T/C [28] of 83.7%, a viability, T/C [29] of 59.5% and a viability, T/C [30] of 46.4%. For the same compound, the viability, T/C [31] was 96.2%, the viability, T/C [32] was 91.8% and the viability, T/C [33] was 94.4%. It also gave a viability, T/C [34] of 72.5%, a viability, T/C [35] of 54.2% and a viability, T/C [36] of 41.9%. For the same compound, the viability, T/C [37] was 92%, the viability, T/C [38] was 88.8% and the viability, T/C [39] was 86.1%. For the same compound, the viability, T/C [40] was 65%, the viability, T/C [41] was 53.6% and the viability, T/C [42] was 35.1%.
`Cn1ncc(Cl)c1-c1cc(C(=O)NC(CN)Cc2cccc(F)c2)sc1Cl` (configuration not stated) + Cc1nc(NC(=O)N2CCCC2C(N)=O)sc1-c1ccnc(C(C)(C)C(F)(F)F)c1 was tested, and the IC50 [3] was 3.91 µM, the IC50 [4] was 2.84 µM and the IC50 [5] was 2.44 µM. For the same compound, the IC50 [6] was 2.85 µM, the IC50 [43] was 1.77 µM and the IC50 [44] was 0.933 µM. It also gave a viability, T/C [19] of 107%, a viability, T/C [20] of 95.5% and a viability, T/C [21] of 90.2%. The viability, T/C [22] was 71.7%, the viability, T/C [23] was 52.4% and the viability, T/C [24] was 36.4%. It also gave a viability, T/C [25] of 104%, a viability, T/C [26] of 103% and a viability, T/C [27] of 98.8%. It also gave a viability, T/C [28] of 70.9%, a viability, T/C [29] of 49.8% and a viability, T/C [30] of 39%. For the same compound, the viability, T/C [31] was 108%, the viability, T/C [32] was 104% and the viability, T/C [33] was 89.4%. The viability, T/C [34] was 61%, the viability, T/C [35] was 50% and the viability, T/C [36] was 36.1%. The viability, T/C [37] was 102%, the viability, T/C [38] was 87% and the viability, T/C [39] was 82.2%. The viability, T/C [40] was 70.1%, the viability, T/C [41] was 44.9% and the viability, T/C [42] was 30.4%. It also gave a viability, T/C [45] of 76.7%, a viability, T/C [46] of 89% and a viability, T/C [47] of 81.9%. It also gave a viability, T/C [48] of 56.7%, a viability, T/C [49] of 42.8% and a viability, T/C [50] of 26.7%. It also gave a viability, T/C [51] of 74.5%, a viability, T/C [52] of 68% and a viability, T/C [53] of 54.8%. The viability, T/C [54] was 53.8%, the viability, T/C [55] was 37.6% and the viability, T/C [56] was 21.6%.
With `CC(C)NCC(C(=O)N1CCN(c2ncnc3c2C(C)CC3O)CC1)c1ccc(Cl)cc1` (configuration not stated) the viability, T/C (compound 0.0316 µM) was 101% [middle of 4 runs], the viability, T/C (compound 0.1 µM) was 101% [middle of 4 runs] and the viability, T/C (compound 0.316 µM) was 102% (2×) and 100% and 105%. The viability, T/C (compound 1 µM) was 82% [middle of 4 runs], the viability, T/C (compound 3.16 µM) was 67.8% [middle of 4 runs] and the viability, T/C (compound 10 µM) was 57.8% [middle of 4 runs]. The IC50 (curve of compound) was > 10 µM and 6.5 µM.
In the case of `CNC(=O)c1ccc(N2C(=S)N(c3ccc(C#N)c(C(F)(F)F)c3)C(=O)C2(C)C)cc1F` + CC(Nc1ncnc2nc[nH]c12)c1cc2cccc(Cl)c2c(=O)n1-c1ccccc1, the IC50 [3] is reported as greater than 10 µM, the IC50 [4] is reported as greater than 10 µM and the IC50 [5] is reported as greater than 10 µM. For the same compound, the IC50 [6] was greater than 10 µM, the IC50 [43] was greater than 10 µM and the IC50 [44] was greater than 10 µM. For the same compound, the viability, T/C [19] was 107%, the viability, T/C [20] was 102% and the viability, T/C [21] was 110%. It also gave a viability, T/C [22] of 97.1%, a viability, T/C [23] of 92.8% and a viability, T/C [24] of 102%. For the same compound, the viability, T/C [25] was 97.7%, the viability, T/C [26] was 101% and the viability, T/C [27] was 104%. For the same compound, the viability, T/C [28] was 108%, the viability, T/C [29] was 106% and the viability, T/C [30] was 116%. The viability, T/C [31] was 96.6%, the viability, T/C [32] was 93.3% and the viability, T/C [33] was 105%. The viability, T/C [34] was 94.2%, the viability, T/C [35] was 105% and the viability, T/C [36] was 117%. The viability, T/C [37] was 98.8%, the viability, T/C [38] was 101% and the viability, T/C [39] was 107%. The viability, T/C [40] was 117%, the viability, T/C [41] was 104% and the viability, T/C [42] was 101%. For the same compound, the viability, T/C [45] was 100%, the viability, T/C [46] was 100% and the viability, T/C [47] was 112%. For the same compound, the viability, T/C [48] was 91.5%, the viability, T/C [49] was 108% and the viability, T/C [50] was 107%. The viability, T/C [51] was 99.1%, the viability, T/C [52] was 95.2% and the viability, T/C [53] was 100%. For the same compound, the viability, T/C [54] was 88.1%, the viability, T/C [55] was 93.2% and the viability, T/C [56] was 97.9%.
